Each block holds one compound with its values, some of them ahead of it.
How the values were obtained:
[1] = test system: MOLM-13 (MLL-AF9) cells; assay: Example 7 primary screen: 300 nM EPZ-5676 pre-treatment, second compound 72 h, ATPLite, GI100 shift; format: cell-based, human; conditions: MOLM-13 (MLL-AF9); 300 nM EPZ-5676 pre-treatment vs DMSO
Protocol: (§1) Cells were split using EPZ-5676 or DMSO containing growth media and further incubated for an additional 3-day pre-treatment time. Cells were finally seeded in growth media containing EPZ-5676 or DMSO in 384-well plates at 500 cell/well density. Cells were then equilibrated in incubators for 24 hours before treatment with a second compound. Treated assay plates were incubated with a second compound for 72 hours. After this time, plates were developed for endpoint analysis using ATPLite to measure ATP content, which is used as an indicator of cell viability.
(§2) “N/D” means the GI100 of the second compound could not be determined for both conditions and “-” means not tested.
(§3) Growth Inhibition (GI) as a measure of cell viability: The cell viability of vehicle was measured at the time of dosing the second agent (T0) and after seventy-two hours (T72). A GI reading of 0% represents no growth inhibition—cells treated with test compound as compared to T72 vehicle signals were measured. […] A GI 200% represents complete death of all cells in the culture well. Compounds reaching an activity plateau of GI 200% are considered cytotoxic. GI is calculated by applying the following test and equation: […]

[2] = test system: MOLM-13 (MLL-AF9) cells; assay: Example 7 retest: EPZ-5676 pre-treatment, second compound 72 h, Cell Titer Glo, growth inhibition; format: cell-based, human; set-up: GI100: unit not given here; conditions: MOLM-13 (MLL-AF9); for Combination result with EPZ-5676, Retest: 150 nM EPZ-5676 pre-treatment vs DMSO
Protocol: (§4) Cells were then treated with a second compound for 72 hours. After this time, plates were developed for endpoint analysis using Cell Titer Glo to measure ATP content, which is used as an indicator of cell viability.
as §2
as §3, with “(T72).” for “(T72). A GI reading of 0% represents no growth inhibition—cells treated with test compound as compared to T72 vehicle signals were measured.”

[3] = test system: ML-2 (MLL-AF6) cells; assay: as above; format: cell-based; set-up: GI100: unit not given here; conditions: ML-2 (MLL-AF6), KRAS A146T (het)
Protocol: as §4, §2
as §3, with “(T72).” for “(T72). A GI reading of 0% represents no growth inhibition—cells treated with test compound as compared to T72 vehicle signals were measured.”

[4] = test system: RS4-11 (MLL-AF4) cells; assay: as above; format: cell-based; set-up: GI100: unit not given here; conditions: RS4-11 (MLL-AF4), Ras mutation status: None known, second compound, 72 h
Protocol: as §4, §2
as §3, with “(T72).” for “(T72). A GI reading of 0% represents no growth inhibition—cells treated with test compound as compared to T72 vehicle signals were measured.”

[5] = test system: SKM-1 (non-MLLr) cells; assay: as above; format: cell-based, human; set-up: GI100: unit not given here; conditions: SKM-1 (non-MLLr)
Protocol: as §4, §2
as §3, with “(T72).” for “(T72). A GI reading of 0% represents no growth inhibition—cells treated with test compound as compared to T72 vehicle signals were measured.”

[6] = test system: THP-1 (MLL-AF9) cells; assay: as above; format: cell-based; conditions: NRAS G12D
Protocol: as §1, with “96-well plates.” for “384-well plates at 500 cell/well density.”, “treated” for “equilibrated in incubators for 24 hours before treatment with a second compound. Treated assay plates were incubated”, “Cell Titer Glo” for “ATPLite”
as §2, §3

[7] = test system: OCI-AML-4 (MLL-ENL) cells; assay: as above; format: cell-based; conditions: OCI-AML-4 (MLL-ENL)
Protocol: as §4, §2
as §3, with “(T72).” for “(T72). A GI reading of 0% represents no growth inhibition—cells treated with test compound as compared to T72 vehicle signals were measured.”

[8] = test system: SKM-1 (non-MLL-rearranged AML) cells; assay: Combination proliferation assay with Compound A2 (CellTiter-Glo, Chou-Talalay CI); format: cell-based, human; conditions: SKM-1; Compound A2 concentrations greater than 1000 nM
Protocol: Graphs representing values of combination index (CI) versus Fractional effect (Fa) known as Fa-CI plots were generated and synergy was evaluated.
(§5) Viability was determined using CellTiter-Glo® (Promega).
MV4-11 cells were maintained in IMDM supplemented with 10% fetal bovine serum. MOLM-13 and SKM-1 cells were maintained in Roswell Park Memorial Institute medium (RPMI) supplemented with 10% fetal bovine serum. They were cultured in flasks or plates in a humidified 5% CO2 atmosphere.
(§6) Proliferation studies were performed using MOLM-13, MV4-11 and SKM-1 cell lines in vitro to evaluate the cancer cell killing effect of a combination of two agents together on cell growth. Initial proliferation studies were performed to determine the IC50 values of a given compound in each cell line. The cell counts were measured by ATP quantitation using the Promega Cell Titer Glo kit and luminescence values correspond to the amount of ATP in a given well.
(§7) Compounds evaluated for synergy in the co-treatment phase were tested in a range which was bracketed around the IC50's. The compounds were plated to a 96 well plate in a matrix format which includes increasing concentrations of each drug in the combination in a constant ratio, in addition to the effect of each compound alone in the study. Cells were seeded and grown in the log-linear phase for 3 or 7 days in the cotreatment phase. Maximum and minimum inhibition (DMSO alone) controls were used in each plate to calculate fraction affected (Fa) of a test well. DMSO concentration was kept at 0.1% v/v. The drug combination analysis was performed utilizing the Chou-Talalay method. Synergy was determined using the software package Calcusyn by Biosoft. The combination index (CI) is the term used to describe the level of synergy or antagonism in a given test system. A combination index less than one indicates synergy, and a CI greater than one indicates antagonism.
(§8) The drug combination analysis was performed using the Chou-Talalay method. Graphs representing values of combination index (CI) versus Fractional effect (Fa) known as Fa-CI plots were generated and synergy was evaluated.

[9] = test system: MV4-11 (MLL-AF4) cells; assay: as above; format: cell-based, human; conditions: MV4-11 (MLL-AF4); 7 Day Cotreatment Model
Procedure, shortened: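 Viability by CellTiter-Glo ATP luminescence; fraction affected versus DMSO controls; combination index by Chou-Talalay method (CI <1 synergy, >1 antagonism).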

[10] = test system: MOLM-13 (MLL-AF9) cells; assay: as above; format: cell-based, human; conditions: MOLM-13 (MLL-AF9); 7 Day Cotreatment Model
Protocol: The acute myelogenous leukemia cell lines MV4-11 (MLL-AF4) and MOLM-13 (MLL-AF9) were obtained from American Type Culture Collection (ATCC; Rockville, Md.) and Deutsche Sammlung von Mikroorganismen and Zellkulturen (DSMZ; Braunschweig, Germany) respectively.
as §6, with “Studies” for “Proliferation studies”, “MLL-rearranged” for “MOLM-13, MV4-11 and SKM-1”, “anti-proliferative” for “cancer cell killing”, “IC50” for “IC50 values”, “corresponded” for “correspond”
Compounds were evaluated for synergy in the co-treatment phase by testing the compounds in a concentration range which was bracketed around their IC50 values. The compounds were plated to a 96 well plate in a matrix format (FIG. 3) which includes increasing concentrations of each drug in the combination in a constant ratio, in addition to the effect of each compound alone in the study. Cells were seeded and grown in the log-linear phase for 3 or 7 days in the co-treatment phase. Minimum inhibition (DMSO alone) controls were used in each plate to calculate fraction affected (Fa) of a test well. DMSO concentration was kept at 0.1% v/v.
The drug combination analysis was performed utilizing the Chou-Talalay method Synergy was determined using the software package Calcusyn by Biosoft. The combination index (CI) is a quantitative term used to describe the level of synergy or antagonism in a given test system. A combination index less than one indicates synergy, and a CI greater than one indicates antagonism. Further, strong synergism is achieved when the CI value falls below 0.3.
The HP-D300 digital dispenser (Tecan) was used to dispense compounds in a combinatorial matrix. […] Cell viability was measured via ATP content using CellTiter-Glo® (Promega).
as §5
Cell viability was measured via ATP content using CellTiter-Glo® (Promega).
as §6
These studies were performed to evaluate both the combinatorial effect of compounds on cell killing and the durability of the effect by washing out one of the agents.
as §7, §8

[11] = 300 nM EPZ-5676 pre-treatment vs DMSO
[12] = KRAS K117N (homo), second compound, 72 h

SMILES: CNC(=O)c1cc(Oc2ccc(NC(=O)Nc3ccc(Cl)c(C(F)(F)F)c3)cc2)ccn1 [Sorafenib]
Combination result with EPZ-5676, Primary screen [1]: Synergy (considered synergistic if the GI100 (Growth inhibition 100) value of the second compound decreased by 2-fold or more when EPZ-5676 was added as compared to the DMSO control)
Combination result with EPZ-5676, Retest [2]: Synergy (considered synergistic if the GI100 (Growth inhibition 100) value of the second compound decreased by 2-fold or more when EPZ-5676 was added as compared to the DMSO control)

SMILES: Cn1c(Nc2ccc(C(F)(F)F)cc2)nc2cc(Oc3ccnc(-c4ncc(C(F)(F)F)[nH]4)c3)ccc21 [RAF265]
Combination result with EPZ-5676, Primary screen [1]: Synergy (considered synergistic if the GI100 (Growth inhibition 100) value of the second compound decreased by 2-fold or more when EPZ-5676 was added as compared to the DMSO control)

GI50 ([4]; Homo sapiens): > 10000 nM
GI50 [5, 12]: 440 nM
GI50 ([2]; Homo sapiens, Ras mutation status: None known, second compound, 72 h): 1670 nM
GI50 [6]: 810 nM
GI50 ([7]; NRAS Q61R (het), second compound, 72 h): 2100 nM
SMILES: CC(C)Nc1cc(-c2c[nH]c(C(=O)N[C@H](CO)c3cccc(Cl)c3)c2)c(Cl)cn1 [Ulixertinib]
Result (combination with EPZ-5676) [3]: Synergy (considered synergistic if the GI100 (Growth inhibition 100) value of the second compound decreased by 2-fold or more when EPZ-5676 was added as compared to the DMSO control)
GI50 ([3]; second compound, 72 h): 630 nM
GI100 ([3]; second compound, 72 h): 2.711
GI100 [4]: >10
Combination result with EPZ-5676, Retest [5, 11]: Synergy (considered synergistic if the GI100 (Growth inhibition 100) value of the second compound decreased by 2-fold or more when EPZ-5676 was added as compared to the DMSO control)
Result (combination with EPZ-5676) ([5]; KRAS K117N (homo)): Synergy (considered synergistic if the GI100 (Growth inhibition 100) value of the second compound decreased by 2-fold or more when EPZ-5676 was added as compared to the DMSO control)
GI100 [5, 12]: 1.500
Combination result with EPZ-5676, Retest [2]: Synergy (considered synergistic if the GI100 (Growth inhibition 100) value of the second compound decreased by 2-fold or more when EPZ-5676 was added as compared to the DMSO control)
Result (combination with EPZ-5676) ([2]; Ras mutation status: None known): Synergy (considered synergistic if the GI100 (Growth inhibition 100) value of the second compound decreased by 2-fold or more when EPZ-5676 was added as compared to the DMSO control)
GI100 ([2]; Ras mutation status: None known, second compound, 72 h): 3.96
Combination result with EPZ-5676, Retest [7, 11]: Synergy (considered synergistic if the GI100 (Growth inhibition 100) value of the second compound decreased by 2-fold or more when EPZ-5676 was added as compared to the DMSO control)
Result (combination with EPZ-5676) ([7]; NRAS Q61R (het)): Synergy (considered synergistic if the GI100 (Growth inhibition 100) value of the second compound decreased by 2-fold or more when EPZ-5676 was added as compared to the DMSO control)

SMILES: C[C@]12C=CC(=O)C=C1CC[C@@H]1[C@@H]2[C@@H](O)C[C@@]2(C)[C@H]1CC[C@]2(O)C(=O)CO [Prednisolone]
Antiproliferative activity in presence of Compound A2 [8]: enhanced antiproliferative activity
Combination effect with Compound A2 (Table 4) [9]: antagonism
Combination effect with Compound A2 (Table 4) [10]: antagonism
